Like-named read-outs stand apart in the source and are kept apart here.

The conditions of this series: rcm bond, Zhan-1B, dichloromethane, 25.0 °C.

Compound `CN1C(=O)OCCCC=Cc2cc(F)ccc2CNC(=O)c2nc3n(c(=O)c2OS(C)(=O)=O)CCCCC31` (centres unmarked) yielded a ring closure, yield of all isomers (from C=CCCCOC(=O)N(C)C1CCCCn2c1nc(C(=O)NCc1ccc(F)cc1C=C)c(OS(C)(=O)=O)c2=O, 4.25 mM, 15.0 h) of 97%.

Compound `CN1CC=Cc2cc(F)ccc2CNC(=O)c2nc3n(c(=O)c2OS(C)(=O)=O)CCCCC3N(C)C(=O)C1=O` (centres unmarked) displayed a ring closure, yield of all isomers (from C=CCN(C)C(=O)C(=O)N(C)C1CCCCn2c1nc(C(=O)NCc1ccc(F)cc1C=C)c(OS(C)(=O)=O)c2=O, 2.6 mM, 60.0 h) of 67%.

In the case of `CC[C@H]1COC[C@@H]2c3nc(c(O)c(=O)n31)C(=O)NCc1ccc(F)cc1OCCC=CC(=O)N2C`, the ring closure, yield of all isomers (from C=CCCOc1cc(F)ccc1CNC(=O)c1nc2n(c(=O)c1O)[C@@H](CC)COC[C@H]2N(C)C(=O)C=C, 3.88 mM, 15.0 h) was 51%.

Compound `CN1C(=O)C=CCCOc2cc(F)ccc2CNC(=O)c2nc3n(c(=O)c2O)CCCCC31` (centres unmarked) yielded a ring closure, yield of all isomers (from C=CCCOc1cc(F)ccc1CNC(=O)c1nc2n(c(=O)c1O)CCCCC2N(C)C(=O)C=C, 5.14 mM, 15.0 h) of 51%.

As for `CN1CCC=CC(=O)N(C)C2CCCCn3c2nc(c(O)c3=O)C(=O)NCc2ccc(F)cc21` (centres unmarked), the ring closure, yield of all isomers (from C=CCCN(C)c1cc(F)ccc1CNC(=O)c1nc2n(c(=O)c1O)CCCCC2N(C)C(=O)C=C, 1.4 mM, 20.0 h) turned out to be 63%.

The compound `CC[C@H]1COC[C@@H]2c3nc(c(O)c(=O)n31)C(=O)NCc1ccc(F)cc1N(C)CCC=CC(=O)N2C` came in with a ring closure, yield of all isomers (from C=CCCN(C)c1cc(F)ccc1CNC(=O)c1nc2n(c(=O)c1O)[C@@H](CC)COC[C@H]2N(C)C(=O)C=C, 2.4 mM, 15.0 h) of 62%.

In the case of `CN1C(=O)CCCC=Cc2cc(F)ccc2CNC(=O)c2nc3n(c(=O)c2OS(C)(=O)=O)CCCCC31` (centres unmarked), for the setting “from C=CCCCC(=O)N(C)C1CCCCn2c1nc(C(=O)NCc1ccc(F)cc1C=C)c(OS(C)(=O)=O)c2=O, 0.9 mM, 24.0 h”, the ring closure, yield of all isomers came to 85%.

As for `CN1C(=O)C=CCCNc2cc(F)ccc2CNC(=O)c2nc3n(c(=O)c2O)CCCCC31` (centres unmarked), where the note is “from C=CCCNc1cc(F)ccc1CNC(=O)c1nc2n(c(=O)c1O)CCCCC2N(C)C(=O)C=C, 2.0 mM, 20.0 h”, the ring closure, yield of all isomers was determined as 53%.

Values taken from patent US20150203512.
